According to patent publication US8911751B2, “Compositions for nasal delivery” (Yissum Research Development Company of the Hebrew …, priority 2005, dated 2014):

Tested on: Female C57Bl/6 mice
Test: Pentobarbitone-induced sleeping in mice (Example 34)
Type: in vivo
Conditions: oral Brotizolam 0.25 mg/kg, 5 minutes before sleep induction; compared to control

Cc1nnc2n1-c1sc(Br)cc1C(c1ccccc1Cl)=NC2 [Oral Brotizolam, 8-bromo-6-(o-chlorophenyl)-1-methyl-4H-s-triazolo[3,4c]thieno[2,3e]1,4-diazepine]
latency (onset of the loss of righting reflex): no significant effect
total sleeping time (TST): no significant effect
